Consider 15 molecules from US5326867A, “Pradimic acids, amides, and pradimicin derivatives” (Bristol-Myers Squibb Company, priority 1992, dated 1994).

Values after ≈ are worked out from the molar mass of the structure shown.

Format in all cases: cell-based
For one experiment, the system named is Candida albicans. In words: In vitro antifungal activity, MIC by serial agar dilution method. To be noted: Sabouraud dextrose agar, 10^6 cells/ml, 40 hours at 28° C. The protocol: (§1) Antifungal activities of representative compounds of the present invention were evaluation in vitro. The minimum inhibitory concentrations (MICs) against various fungi were determined by serial agar dilution method using Sabouraud dextrose agar. Thus, approximately 0.003 ml of fungal suspension containing 10^6 cells/ml was applied to the surface of agar plates containing the test antibiotics.

In another experiment the test system is Cryptococcus neoformans. Described as above. To be noted: Sabouraud dextrose agar, 10^6 cells/ml, 40 hours at 28° C. The protocol: as §1
In another experiment the test system is Aspergillus fumigatus. Described as above. To be noted: Sabouraud dextrose agar, 10^6 cells/ml, 40 hours at 28° C. The protocol: as §1
For experiment [1], the system named is Trichophyton mentagrophytes. The description is as above. To be noted: Sabouraud dextrose agar, 10^6 cells/ml, 40 hours at 28° C. The protocol: as §1
The subject of another experiment is fungi. The experiment is described as follows: Antifungal activity of synthesized pradimicin A compared with naturally occurring pradimicin A. To be noted: semisynthetic product of Example 12 vs naturally occurring pradimicin A.

By MIC is commonly meant the least concentration at which growth counts as inhibited. A lower MIC goes with inhibition by little substance. For `CN[C@@H]1[C@H](O[C@@H]2OC[C@@H](O)[C@H](O)[C@H]2O)[C@@H](O)[C@H](O[C@H]2c3cc(C)c(C(=O)N[C@H](Cc4ccc(O)c(O)c4)C(=O)O)c(O)c3-c3c(cc4c(c3O)C(=O)c3cc(OC)cc(O)c3C4=O)[C@@H]2O)O[C@@H]1C` [Example 13, 15-Desalanyl-15-[D-(3,4-dihydroxyphenyl)alanyl] pradimicin A], the minimal inhibitory concentration (MIC) was > 50 µg/mL against Candida albicans, 25 µg/mL (≈ 26.3 µM) in the experiment with Cryptococcus neoformans, > 50 µg/mL in the experiment with Aspergillus fumigatus and 50 µg/mL (≈ 52.7 µM) in experiment [1].

On to `CN[C@@H]1[C@H](O[C@@H]2OC[C@@H](O)[C@H](O)[C@H]2O)[C@@H](O)[C@H](O[C@H]2c3cc(C)c(C(=O)N[C@@H](CO)C(=O)O)c(O)c3-c3c(cc4c(c3O)C(=O)c3cc(OC)cc(O)c3C4=O)[C@@H]2O)O[C@@H]1C` [Example 14], for which the MIC against Candida albicans was 12.5 µg/mL (≈ 14.6 µM); against Cryptococcus neoformans it was 12.5 µg/mL (≈ 14.6 µM); with Aspergillus fumigatus, > 100 µg/mL; in experiment [1] it was > 100 µg/mL.

In the case of `CN[C@@H]1[C@H](O[C@@H]2OC[C@@H](O)[C@H](O)[C@H]2O)[C@@H](O)[C@H](O[C@H]2c3cc(C)c(C(=O)N[C@H](CN)C(=O)O)c(O)c3-c3c(cc4c(c3O)C(=O)c3cc(OC)cc(O)c3C4=O)[C@@H]2O)O[C@@H]1C` [Example 15], the minimal inhibitory concentration (MIC) against Candida albicans worked out at 25 µg/mL (≈ 29.2 µM); against Cryptococcus neoformans, 6.3 µg/mL (≈ 7.36 µM); in the experiment on Aspergillus fumigatus it was 6.3 µg/mL (≈ 7.36 µM); in experiment [1], 6.3 µg/mL (≈ 7.36 µM).

Take `CN[C@@H]1[C@H](O[C@@H]2OC[C@@H](O)[C@H](O)[C@H]2O)[C@@H](O)[C@H](O[C@H]2c3cc(C)c(C(=O)N[C@H](CC(=O)O)C(=O)O)c(O)c3-c3c(cc4c(c3O)C(=O)c3cc(OC)cc(O)c3C4=O)[C@@H]2O)O[C@@H]1C` [Example 16]: the minimal inhibitory concentration (MIC) in the experiment on Candida albicans came to 12.5 µg/mL (≈ 14.1 µM); in the experiment with Cryptococcus neoformans it was 6.3 µg/mL (≈ 7.12 µM); in the experiment with Aspergillus fumigatus, 50 µg/mL (≈ 56.5 µM); in experiment [1] it was 12.5 µg/mL (≈ 14.1 µM).

As to `CN[C@@H]1[C@H](O[C@@H]2OC[C@@H](O)[C@H](O)[C@H]2O)[C@@H](O)[C@H](O[C@H]2c3cc(C)c(C(=O)NC(C(=O)O)C(F)(F)F)c(O)c3-c3c(cc4c(c3O)C(=O)c3cc(OC)cc(O)c3C4=O)[C@@H]2O)O[C@@H]1C` (stereo partly drawn) [Example 17], the MIC in the experiment with Candida albicans was > 100 µg/mL; against Cryptococcus neoformans, 3.1 µg/mL (≈ 3.46 µM); in the experiment with Aspergillus fumigatus, 50 µg/mL (≈ 55.9 µM); in experiment [1], > 100 µg/mL.

In the case of `CN[C@@H]1[C@H](O[C@@H]2OC[C@@H](O)[C@H](O)[C@H]2O)[C@@H](O)[C@H](O[C@H]2c3cc(C)c(C(=O)N[C@H](Cc4ccccc4)C(=O)O)c(O)c3-c3c(cc4c(c3O)C(=O)c3cc(OC)cc(O)c3C4=O)[C@@H]2O)O[C@@H]1C` [Example 18], the MIC is > 100 µg/mL against Candida albicans, 1.6 µg/mL (≈ 1.75 µM) with Cryptococcus neoformans, 6.3 µg/mL (≈ 6.87 µM) in the experiment on Aspergillus fumigatus and 12.5 µg/mL (≈ 13.6 µM) in experiment [1].

Turning to `CN[C@@H]1[C@H](O[C@@H]2OC[C@@H](O)[C@H](O)[C@H]2O)[C@@H](O)[C@H](O[C@H]2c3cc(C)c(C(=O)N[C@H](Cc4cnc[nH]4)C(=O)O)c(O)c3-c3c(cc4c(c3O)C(=O)c3cc(OC)cc(O)c3C4=O)[C@@H]2O)O[C@@H]1C` [Example 19], the minimum inhibitory concentration (MIC) against Candida albicans was > 50 µg/mL; with Cryptococcus neoformans, 12.5 µg/mL (≈ 13.8 µM); in the experiment with Aspergillus fumigatus, 50 µg/mL (≈ 55.1 µM); in experiment [1] it was 12.5 µg/mL (≈ 13.8 µM).

Turning to `CN[C@@H]1[C@H](O[C@@H]2OC[C@@H](O)[C@H](O)[C@H]2O)[C@@H](O)[C@H](O[C@H]2c3cc(C)c(C(=O)NCc4nnn[nH]4)c(O)c3-c3c(cc4c(c3O)C(=O)c3cc(OC)cc(O)c3C4=O)[C@@H]2O)O[C@@H]1C` [Example 20], the MIC against Candida albicans turned out to be 6.3 µg/mL (≈ 7.4 µM); against Cryptococcus neoformans, 3.1 µg/mL (≈ 3.64 µM); against Aspergillus fumigatus, 3.1 µg/mL (≈ 3.64 µM); in experiment [1] it was 3.1 µg/mL (≈ 3.64 µM).

For the molecule `CN[C@@H]1[C@H](O[C@@H]2OC[C@@H](O)[C@H](O)[C@H]2O)[C@@H](O)[C@H](O[C@H]2c3cc(C)c(C(=O)N[C@H](CCCCN)C(=O)O)c(O)c3-c3c(cc4c(c3O)C(=O)c3cc(OC)cc(O)c3C4=O)[C@@H]2O)O[C@@H]1C` [Example 21], the MIC with Candida albicans was determined as 25 µg/mL (≈ 27.8 µM); with Cryptococcus neoformans, 6.3 µg/mL (≈ 7.02 µM); against Aspergillus fumigatus it was 6.3 µg/mL (≈ 7.02 µM); in experiment [1] it was 6.3 µg/mL (≈ 7.02 µM).

On to `CCNC(=O)SC[C@@H](NC(=O)c1c(C)cc2c(c1O)-c1c(cc3c(c1O)C(=O)c1cc(OC)cc(O)c1C3=O)[C@H](O)[C@H]2O[C@@H]1O[C@H](C)[C@H](NC)[C@H](O[C@@H]2OC[C@@H](O)[C@H](O)[C@H]2O)[C@H]1O)C(=O)O` [Example 23], for which the MIC in the experiment on Candida albicans came out at 25 µg/mL (≈ 26.5 µM); with Cryptococcus neoformans, 3.1 µg/mL (≈ 3.28 µM); against Aspergillus fumigatus it was 3.1 µg/mL (≈ 3.28 µM); in experiment [1], 12.5 µg/mL (≈ 13.2 µM).

On to `COc1cc(O)c2c(c1)C(=O)c1c(cc3c(c1O)-c1c(cc(C)c(C(=O)N[C@@H](C(=O)O)[C@H](C)O)c1O)[C@H](O[C@@H]1O[C@H](C)[C@H](O)[C@H](O[C@@H]4OC[C@@H](O)[C@H](O)[C@H]4O)[C@H]1O)[C@H]3O)C2=O` [Example 27, 15-Desalanyl-15-(D-threonyl) -4'-desmethylamino-4'-hydroxypradimicin A], for which the MIC against Candida albicans stood at 12.5 µg/mL (≈ 14.6 µM); against Cryptococcus neoformans it was 6.3 µg/mL (≈ 7.34 µM); against Aspergillus fumigatus it was 12.5 µg/mL (≈ 14.6 µM); in experiment [1], 12.5 µg/mL (≈ 14.6 µM).

`COc1cc(O)c2c(c1)C(=O)c1c(cc3c(c1O)-c1c(cc(C)c(C(=O)N[C@H](CSSC[C@@H](N)C(=O)O)C(=O)O)c1O)[C@H](O[C@@H]1O[C@H](C)[C@H](O)[C@H](O[C@@H]4OC[C@@H](O)[C@H](O)[C@H]4O)[C@H]1O)[C@H]3O)C2=O` [Example 29]: the MIC in the experiment on Candida albicans came to 6.3 µg/mL (≈ 6.44 µM); against Cryptococcus neoformans, 3.1 µg/mL (≈ 3.17 µM); in the experiment on Aspergillus fumigatus it was 6.3 µg/mL (≈ 6.44 µM); in experiment [1], 12.5 µg/mL (≈ 12.8 µM).

Take `COc1cc(O)c2c(c1)C(=O)c1c(cc3c(c1O)-c1c(cc(C)c(C(=O)N[C@@H](CO)C(=O)O)c1O)[C@H](O[C@@H]1O[C@H](C)[C@H](O)[C@H](O[C@@H]4OC[C@@H](O)[C@H](O)[C@H]4O)[C@H]1O)[C@H]3O)C2=O` [Example 30]: the minimum inhibitory concentration (MIC) in the experiment on Candida albicans is 12.5 µg/mL (≈ 14.8 µM); against Cryptococcus neoformans, 50 µg/mL (≈ 59.3 µM); against Aspergillus fumigatus it was > 100 µg/mL; in experiment [1] it was > 100 µg/mL.

Regarding `COc1cc(O)c2c(c1)C(=O)c1c(cc3c(c1O)-c1c(cc(C)c(C(=O)N[C@H](C)C(=O)O)c1O)[C@H](O[C@@H]1O[C@H](C)[C@H](O)[C@H](O[C@@H]4OC[C@@H](O)[C@H](O)[C@H]4O)[C@H]1O)[C@H]3O)C2=O` [Example 31], the MIC against Candida albicans came to 6.3 µg/mL (≈ 7.61 µM); against Cryptococcus neoformans it was 3.1 µg/mL (≈ 3.75 µM); with Aspergillus fumigatus it was 3.1 µg/mL (≈ 3.75 µM); in experiment [1] it was 3.1 µg/mL (≈ 3.75 µM).

`CN[C@@H]1[C@H](O[C@@H]2OC[C@@H](O)[C@H](O)[C@H]2O)[C@@H](O)[C@H](O[C@H]2c3cc(C)c(C(=O)N[C@H](C)C(=O)O)c(O)c3-c3c(cc4c(c3O)C(=O)c3cc(OC)cc(O)c3C4=O)[C@@H]2O)O[C@@H]1C` [pradimicin A]: the antifungal activity entry in the experiment on fungi was “identical to naturally occurring pradimicin A in spectroscopic data (NMR, IR, UV), HPLC and antifungal activity”.
